In publication PMC10979501, “Protein Structure-Based Organic Chemistry-Driven Ligand Design from Ultralarge Chemical Spaces” (ACS Central Science, 2024):
Where two headings read alike, the source gives them in different places.

Assays:
human DRD3 = conditions: cited from earlier work
human recombinant DRD3 = target: T1, human recombinant DRD3 (Homo sapiens, UniProt P35462); test: [3H]-methylspiperone binding inhibition, human recombinant DRD3 in CHO cells (Eurofins Discovery assay #48); conditions: for inhibition at 10 µM: 10 μM competitor, single concentration, mean of two independent experiments, CHO cells, read-out: percentage of inhibition of [3H]-methylspiperone binding; for ligand efficiency (LE): SpaceDock hits, LE as in ref 53; for Ki: from six concentrations dose-response curves, read-out: inhibition constant (Ki)
T1 construct: host or cells: CHO cells
T1 sequence (P35462 whole entry): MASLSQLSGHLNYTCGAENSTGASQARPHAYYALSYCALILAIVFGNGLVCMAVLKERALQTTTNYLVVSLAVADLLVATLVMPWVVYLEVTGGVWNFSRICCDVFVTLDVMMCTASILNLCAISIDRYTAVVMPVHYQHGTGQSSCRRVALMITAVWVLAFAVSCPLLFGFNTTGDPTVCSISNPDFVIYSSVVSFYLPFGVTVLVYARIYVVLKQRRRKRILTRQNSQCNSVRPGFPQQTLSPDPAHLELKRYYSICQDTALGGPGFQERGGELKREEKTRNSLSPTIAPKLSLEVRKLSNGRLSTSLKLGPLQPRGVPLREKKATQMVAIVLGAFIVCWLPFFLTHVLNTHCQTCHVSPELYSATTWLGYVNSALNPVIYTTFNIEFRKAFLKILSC
Method: Fig. S8. Binding of six SpaceDock hits to the human dopamine D3 receptor, expressed by the
percentage of inhibition of [3H]‐methylspiperone binding to human recombinant DRD3 in CHO cells
(Eurofins‐Discovery assay #48). Inhibition constants (Ki) were determined from six concentrations

Q: With `CCc1cc(Cl)c(OC)c(C(=O)NC[C@@H]2CCCN2CC)c1O` [Eticlopride, eticlopride] as the molecule, how does the Ki (human DRD3; eticlopride, in Figure 4A) read?
A: The Ki was 0.12 nM.

Q: With `COc1cc2c(c(C(=O)NC[C@H]3CCCN3Cc3ccccc3)c1)OCC2` [CHEMBL148352] as the molecule, how does the Ki (human DRD3; closest ChEMBL ligand) read?
A: Its Ki is 120 nM.

Q: For `CCc1oc(C)cc1C(=O)NCC1CCN(CC)CC1` [#97], which inhibition at 10 µM (human recombinant DRD3) is on record?
A: Its inhibition at 10 µM is 13.6 ± 0.2%.

Q: With `CCc1cc2c(c(C(=O)NCCN(C(C)C)C3CC3)c1)OCC2` [#1] as the molecule, how does the inhibition at 10 µM (human recombinant DRD3) read?
A: The inhibition at 10 µM was 95.1 ± 1.1%.

Q: And the “ligand efficiency (LE)” value (human recombinant DRD3)?
A: The value was 0.40.

Q: And the Ki (human recombinant DRD3)?
A: The Ki was 360 nM.

Q: For `CCCN(CC)CCNC(=O)c1nn(C)c2c1CSCC2` [#161], which inhibition at 10 µM (human recombinant DRD3) is on record?
A: The inhibition at 10 µM was 72.6 ± 0.9%.

Q: What about the “ligand efficiency (LE)” value (human recombinant DRD3) of the same molecule?
A: Its value is 0.39.

Q: What about the Ki (human recombinant DRD3) of the same molecule?
A: The Ki was 1650 nM.

Q: For `CCN(CC)CC(CC)(CC)NC(=O)c1cccc2nc(C)sc12` [#110], which inhibition at 10 µM (human recombinant DRD3) is on record?
A: Its inhibition at 10 µM is -5.1 ± 4.5%.

Q: For `CCCN(CCCCNC(=O)c1cccc2cc[nH]c12)CC1CC1c1cccc(F)c1` (stereo not drawn) [CHEMBL4590839], which Ki (human DRD3; closest ChEMBL ligand) is on record?
A: The Ki was 18.8 nM.

Q: With `CCN1CCC[C@H]1CNC(=O)c1c(-c2ccccc2)noc1C` [#239] as the molecule, how does the inhibition at 10 µM (human recombinant DRD3) read?
A: Its inhibition at 10 µM is 3.5 ± 3.1%.

Q: With `Cc1nc2sccn2c1C(=O)NCC1CCCCC1N1CCCC1` (stereo not drawn) [#215] as the molecule, how does the inhibition at 10 µM (human recombinant DRD3) read?
A: Its inhibition at 10 µM is 4.7 ± 1.8%.

Q: With `CCN(CC)CCNC(=O)c1cc(Cl)c(N)cc1OC` [CHEMBL86] as the molecule, how does the Ki (human DRD3; closest ChEMBL ligand) read?
A: The Ki was 23 nM.

Q: What does the source list for `CCCN(CC)CCNC(=O)c1cc(Br)cc2[nH]cnc12` [#142]?
A: inhibition at 10 µM (human recombinant DRD3): 88.7 ± 0.1%; ligand efficiency (LE) (human recombinant DRD3): 0.43; Ki (human recombinant DRD3): 401 nM

Q: For `CCCN(CCC)CCNC(=O)c1cccc2oc(C)nc12` [#256], which inhibition at 10 µM (human recombinant DRD3) is on record?
A: The inhibition at 10 µM was 44.4 ± 0.8%.

Q: With `CCCN(CCNC(=O)c1cccc2sccc12)C(C)C` [#107] as the molecule, how does the inhibition at 10 µM (human recombinant DRD3) read?
A: Its inhibition at 10 µM is 80.2 ± 0.5%.

Q: And the “ligand efficiency (LE)” value (human recombinant DRD3)?
A: The value was 0.39.

Q: What about the Ki (human recombinant DRD3) of the same molecule?
A: Its Ki is 1570 nM.

Q: For `CCCN(CCC)CCNC(=O)c1cccc2c(C)c(C)[nH]c12` [#25], which inhibition at 10 µM (human recombinant DRD3) is on record?
A: Its inhibition at 10 µM is 90.7 ± 1.6%.

Q: What about the “ligand efficiency (LE)” value (human recombinant DRD3) of the same molecule?
A: Its value is 0.36.

Q: And the Ki (human recombinant DRD3)?
A: Its Ki is 1400 nM.

Q: Which inhibition at 10 µM (human recombinant DRD3) does the source give for `CCCN1CCCC1CNC(=O)c1c[nH]cc1-c1ccccc1` (stereo not drawn) [#66] here?
A: The inhibition at 10 µM was 88.2 ± 0.8%.

Q: What about the “ligand efficiency (LE)” value (human recombinant DRD3) of the same molecule?
A: The value was 0.40.

Q: What about the Ki (human recombinant DRD3) of the same molecule?
A: The Ki was 320 nM.

Q: For `Cc1ccc(C)c(C(=O)NCCCCN2CCN(c3cc(C)ccc3C)CC2)c1` [CHEMBL1258495], which Ki (human DRD3; closest ChEMBL ligand) is on record?
A: Its Ki is 28 nM.

Q: For `C#CC1CCC(N(CCC)CCCCNC(=O)c2ccc(OCCCc3cnn(CCCC)n3)c(OC)c2)CC1` (stereo not drawn) [CHEMBL2397478], which Ki (human DRD3; closest ChEMBL ligand) is on record?
A: The Ki was 1 nM.

Q: For `CC(C)N(CCNC(=O)c1cn(C)nc1C1CCOC1)C1CC1` (stereo not drawn) [#36], which inhibition at 10 µM (human recombinant DRD3) is on record?
A: Its inhibition at 10 µM is 21.3 ± 0.4%.

Q: Which inhibition at 10 µM (human recombinant DRD3) does the source give for `CCCN(CCC)CCNC(=O)C1CCc2cnn(C)c2C1` (stereo not drawn) [#35] here?
A: The inhibition at 10 µM was 13.7 ± 1.2%.

Q: With `CCc1ccc2occ(C(=O)NCC3CCCN(CC)C3)c2c1` (stereo not drawn) [#33] as the molecule, how does the inhibition at 10 µM (human recombinant DRD3) read?
A: Its inhibition at 10 µM is 34.3 ± 1.3%.

Q: Which inhibition at 10 µM (human recombinant DRD3) does the source give for `Cc1ccc(C(CNC(=O)c2cc(C)nc3c2cnn3C)N2CCCC2)cc1` (stereo not drawn) [#252] here?
A: Its inhibition at 10 µM is 26.2 ± 0.8%.
